Test results: US20260048043A1, “HIGH LOADING ORAL FILM FORMULATION WITH IMPROVED BIOAVAILABILITY” (INTELGENX CORP., priority 2022, published 2026)

Assay: Compatibility of maropitant with polyacid polymers (precipitate formation)
Assay type: physicochemical
Settings: neutral pH

COc1ccc(C(C)(C)C)cc1CN[C@H]1C2CCN(CC2)[C@H]1C(c1ccccc1)c1ccccc1 [Maropitant, (2S,3S)-(Diphenylmethyl)-N-[2-methoxy-5-(2-methyl-2-propanyl)benzyl]quinuclidin-3-amine]
precipitate formation with polyacid polymer(s) such as CMC, Carbomer and polycarbophil: precipitate was formed
